In patent publication US20120135997A1, “PHARMACEUTICAL COMPOSITION COMPRISING A LACTAM OR BENZENESULFONAMIDE COMPOUND” (Shionogi & Co., Ltd., priority 2009, published 2012):
pIC50: −log10 of the molar value.

How the values were obtained:
Experiment in all cases: CYP inhibition test, pooled human liver microsomes
Type in all cases: in vitro ADME
CYP3A4 = CYP3A4 (Homo sapiens, UniProt P08684); design: from tissue; host or cells: pooled human liver microsomes; details: hydroxylation of terfenadine
Description: Using commercially available pooled human liver microsomes and employing typical substrate metabolic reactions of 5 major species of human CYP enzymes (CYP1A2, 2C9, 2C19, 2D6, 3A4), namely, O-deethylation of 7-ethoxyresorufin (CYP1A2), methyl-hydroxylation of tolbutamide (CYP2C9), 4′-hydroxylation of mephenyloin (CYP2C19), O-demethylation of dextromethorphan (CYP2D6), and hydroxylation of terfenadine (CYP3A4), as indicator reactions, the degree of inhibition of each metabolite production by each test compound is evaluated. […] Centrifugation is performed for 15 minutes at 3000 rpm, and each metabolite in the centrifuged supernatant is quantified. Namely, resorufin (CYP1A2 metabolite) is quantified with a fluorescence multilabel counter, and hydroxylated tolbutamide (CYP2C9 metabolite), 4′-hydroxylated mephenyloin (CYP2C19 metabolite), dextrorphan (CYP2D6 metabolite) and alcoholized terfenadine (CYP3A4 metabolite) are quantified with LC/MS/MS. […] The remaining activity (%) at each concentration after adding the test compound solution is calculated, and the […] is calculated from the concentration and inhibition percentage by inverse estimation with the logistic model.

CYP2D6 = molecular target: T1, CYP2D6 (Homo sapiens, UniProt P10635); details: O-demethylation of dextromethorphan
T1 construct: from tissue; host or cells: pooled human liver microsomes
Description: (§1) Using commercially available pooled human liver microsomes and employing typical substrate metabolic reactions of 5 major species of human CYP enzymes (CYP1A2, 2C9, 2C19, 2D6, 3A4), namely, O-deethylation of 7-ethoxyresorufin (CYP1A2), methyl-hydroxylation of tolbutamide (CYP2C9), 4′-hydroxylation of mephenyloin (CYP2C19), O-demethylation of dextromethorphan (CYP2D6), and hydroxylation of terfenadine (CYP3A4), as indicator reactions, the degree of inhibition of each metabolite production by each test compound is evaluated. The reaction conditions are as follows: Substrate: 0.5 μmol/L of ethoxyresorufin (CYP1A2), 100 μmol/L of tolbutamide (CYP2C9), 50 μmol/L of S-mephenyloin (CYP2C19), 5 μmol/L of dextromethorphan (CYP2D6), 1 μmol/L of terfenadine (CYP3A4); Reaction time period: 15 minutes; Reaction temperature: 37° C.; Enzyme: pooled human liver microsomes 0.2 mg protein/mL; Test compound concentration: 1, 5, 10 and 20 μmol/L (four different concentrations). As a reaction solution, the respective five substrates, human liver microsomes, and test compound in the aforementioned amounts are added to a 50 mM Hepes buffer in a 96-well plate. NADPH, which is a coenzyme, is added thereto to start the indicator metabolic reaction. The reaction proceeds for 15 minutes at 37° C., and the solution of methanol/acetonitrile=1/1 (v/v) is added so as to terminate the reaction. Centrifugation is performed for 15 minutes at 3000 rpm, and each metabolite in the centrifuged supernatant is quantified. Namely, resorufin (CYP1A2 metabolite) is quantified with a fluorescence multilabel counter, and hydroxylated tolbutamide (CYP2C9 metabolite), 4′-hydroxylated mephenyloin (CYP2C19 metabolite), dextrorphan (CYP2D6 metabolite) and alcoholized terfenadine (CYP3A4 metabolite) are quantified with LC/MS/MS. Control (100%) is prepared by adding only DMSO, a solvent to dissolve the test compound, to the reaction system. The remaining activity (%) at each concentration after adding the test compound solution is calculated, and the […] is calculated from the concentration and inhibition percentage by inverse estimation with the logistic model.

CYP2C9 = molecular target: T2, CYP2C9 (Homo sapiens, UniProt P11712); details: methyl-hydroxylation of tolbutamide
T2 construct: from tissue; host or cells: pooled human liver microsomes
Description: as §1

CYP2C19 = molecular target: T3, CYP2C19 (Homo sapiens, UniProt P33261); details: 4′-hydroxylation of mephenyloin
T3 construct: from tissue; host or cells: pooled human liver microsomes
Description: as §1

CYP1A2 = molecular target: T4, CYP1A2 (Homo sapiens, UniProt P05177); details: O-deethylation of 7-ethoxyresorufin
T4 construct: from tissue; host or cells: pooled human liver microsomes
T4 sequence (P05177 1-516): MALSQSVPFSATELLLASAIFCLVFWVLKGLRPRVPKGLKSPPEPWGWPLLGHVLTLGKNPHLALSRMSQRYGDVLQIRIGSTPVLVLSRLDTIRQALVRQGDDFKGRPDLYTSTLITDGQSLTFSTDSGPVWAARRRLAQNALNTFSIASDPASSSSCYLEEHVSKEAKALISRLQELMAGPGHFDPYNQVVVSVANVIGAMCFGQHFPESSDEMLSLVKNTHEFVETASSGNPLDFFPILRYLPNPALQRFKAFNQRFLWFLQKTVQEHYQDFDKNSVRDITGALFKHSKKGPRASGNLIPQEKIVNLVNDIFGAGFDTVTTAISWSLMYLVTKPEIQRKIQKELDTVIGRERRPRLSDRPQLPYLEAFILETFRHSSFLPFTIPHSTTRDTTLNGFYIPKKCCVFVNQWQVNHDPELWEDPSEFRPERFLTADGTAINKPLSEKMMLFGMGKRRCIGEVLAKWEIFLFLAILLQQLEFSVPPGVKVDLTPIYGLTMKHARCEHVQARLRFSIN
Description: as §1

Chain of CYP3A4 (P08684 whole entry): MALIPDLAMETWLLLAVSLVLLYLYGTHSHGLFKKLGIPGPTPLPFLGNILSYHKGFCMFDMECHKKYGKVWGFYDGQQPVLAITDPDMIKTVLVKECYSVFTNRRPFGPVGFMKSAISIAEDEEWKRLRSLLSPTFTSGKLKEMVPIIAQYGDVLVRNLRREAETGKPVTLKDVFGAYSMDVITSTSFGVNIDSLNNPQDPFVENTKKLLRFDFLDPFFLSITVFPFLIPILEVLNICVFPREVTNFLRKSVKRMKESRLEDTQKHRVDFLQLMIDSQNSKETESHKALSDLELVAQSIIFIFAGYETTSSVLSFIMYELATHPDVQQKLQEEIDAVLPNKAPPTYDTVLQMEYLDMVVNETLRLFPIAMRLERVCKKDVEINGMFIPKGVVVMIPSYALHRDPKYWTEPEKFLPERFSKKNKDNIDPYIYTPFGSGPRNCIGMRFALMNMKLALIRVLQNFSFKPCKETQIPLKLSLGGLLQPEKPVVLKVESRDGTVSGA
T3 sequence (P33261 whole entry): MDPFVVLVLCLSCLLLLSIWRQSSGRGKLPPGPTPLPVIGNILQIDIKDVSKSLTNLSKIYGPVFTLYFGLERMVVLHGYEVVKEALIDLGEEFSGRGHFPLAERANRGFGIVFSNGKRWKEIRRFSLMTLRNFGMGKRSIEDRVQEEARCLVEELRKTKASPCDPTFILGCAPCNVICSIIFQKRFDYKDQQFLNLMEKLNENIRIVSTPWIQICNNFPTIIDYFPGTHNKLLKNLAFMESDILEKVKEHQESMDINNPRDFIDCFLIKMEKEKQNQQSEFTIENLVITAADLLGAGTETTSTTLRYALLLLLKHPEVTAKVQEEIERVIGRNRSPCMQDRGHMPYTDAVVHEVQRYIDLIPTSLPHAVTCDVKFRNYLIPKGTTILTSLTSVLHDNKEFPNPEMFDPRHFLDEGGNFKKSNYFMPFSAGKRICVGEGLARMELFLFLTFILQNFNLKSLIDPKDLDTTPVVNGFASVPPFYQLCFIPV
T2 sequence (P11712 whole entry): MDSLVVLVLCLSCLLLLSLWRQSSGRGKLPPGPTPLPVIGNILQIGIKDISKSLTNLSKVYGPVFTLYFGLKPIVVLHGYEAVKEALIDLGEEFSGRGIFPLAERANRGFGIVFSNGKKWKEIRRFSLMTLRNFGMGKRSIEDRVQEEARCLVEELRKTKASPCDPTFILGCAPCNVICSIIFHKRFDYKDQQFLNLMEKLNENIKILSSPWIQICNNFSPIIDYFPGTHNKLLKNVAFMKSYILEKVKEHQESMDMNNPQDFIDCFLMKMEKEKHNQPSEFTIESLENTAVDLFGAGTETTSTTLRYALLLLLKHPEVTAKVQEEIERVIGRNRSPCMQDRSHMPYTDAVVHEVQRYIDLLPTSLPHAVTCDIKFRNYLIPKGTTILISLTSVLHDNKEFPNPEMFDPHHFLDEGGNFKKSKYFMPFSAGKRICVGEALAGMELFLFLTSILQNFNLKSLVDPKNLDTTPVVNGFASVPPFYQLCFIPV
T1 sequence (P10635 whole entry): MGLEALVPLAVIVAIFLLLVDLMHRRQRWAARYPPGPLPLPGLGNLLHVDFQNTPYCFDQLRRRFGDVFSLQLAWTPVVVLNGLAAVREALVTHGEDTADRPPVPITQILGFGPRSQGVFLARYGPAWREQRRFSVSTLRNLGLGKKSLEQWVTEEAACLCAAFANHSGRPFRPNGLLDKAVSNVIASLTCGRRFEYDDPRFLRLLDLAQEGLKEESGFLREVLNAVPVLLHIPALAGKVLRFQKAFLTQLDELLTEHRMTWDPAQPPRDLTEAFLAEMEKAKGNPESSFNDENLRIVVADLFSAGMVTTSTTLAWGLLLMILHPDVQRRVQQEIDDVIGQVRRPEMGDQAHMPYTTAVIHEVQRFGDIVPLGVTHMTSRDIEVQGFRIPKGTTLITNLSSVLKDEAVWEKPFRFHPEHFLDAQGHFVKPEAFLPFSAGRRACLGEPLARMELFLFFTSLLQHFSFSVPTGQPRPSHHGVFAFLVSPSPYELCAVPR

pIC50 (CYP3A4): < 5.00 | pIC50 (CYP2D6): < 5.00 | pIC50 (CYP2C9): < 5.00 | pIC50 (CYP2C19): < 5.00 | pIC50 (CYP1A2): < 5.00
SMILES: COc1cc(NS(=O)(=O)c2ccccc2CO)ccc1-n1cnc(C)c1 [Compound 121]
